SMILES strings stand for the structures. Read-outs that look alike come from different tables or passages of the source.

Assay [1] has as its system PLC/PRF/5 KSR2 OE (PLC cells overexpressing KSR2). The experiment in a line: Cell IC50 assay (CCK8 cell viability), PLC/PRF/5 KSR2 OE. The assay is classed as cell-based. Conditions: Homo sapiens, read-out: IC50 value of cell viability, PLC/PRF/5 KSR2 OE (PLC cells overexpressing KSR2). How it is done:
(§1) (1) Cell Preparation: Hepatoma cells (PLC/PRF/5, sourced from the Chinese Academy of Sciences; MHCC97H, sourced from this research institute) in good growth condition are prepared. The cells are trypsinized, diluted, and seeded into 96-well cell culture plates. 1,000-3,000 cells are added per well. The plates are then placed in a cell culture incubator at 37° C. with 5% CO2. Drugs are added after the cells have adhered for 24 h.
(§2) (2) Drug Addition: The drugs are subjected to gradient dilution, typically setting 9 concentrations. Control groups containing no drug medium and medium containing only the drug solvent are also set up. The diluted drugs are added to the cell culture plates seeded the previous day. The plates are incubated for 72 h.
(§3) (3) CCK8 Assay for Cell Viability: CCK8 is mixed with culture medium at a 1:10 ratio. 100 μL of this mixture is added to each well of the cell culture plate. After incubating for 2-4 h, the OD values are measured using a microplate reader.
(§4) (4) Data Analysis: Based on the corresponding OD values, the data are compiled, IC50 curves are plotted, and the IC50 values are obtained.
(§5) (5) IC50 Verification: The theoretical IC50 value is identified from the IC50 curve. Drug concentrations at ½ times, 1 time, and 2 times this theoretical value are used for verification.

Assay [2] has as its system MHCC97H KSR2 OE (97H cells overexpressing KSR2). The experiment in a line: Cell IC50 assay (CCK8 cell viability), MHCC97H KSR2 OE. The class given is cell-based. To be noted: Homo sapiens. How it is done: as §1, §2, §3, §4, §5
Where [3] appears, read: PLC-PRF-5, hepatoma cells, 72 h incubation, CCK8.
The mark [4] stands for this setting: hepatoma cells, 72 h incubation, CCK8, read-out: IC50 value of cell viability, MHCC97H KSR2 OE (97H cells overexpressing KSR2).

`CN1CCN(C2CN(CCCNC(=O)c3c4c(nn3C)-c3ccc(Cl)cc3OC4)C2)CC1` [Compound 118]: the IC50 in assay [1] (setting [3]) came out at 10 µM; in assay [2] (setting [4]) it was 5 µM.
Take `CN1CCN(C2CCN(CCCNC(=O)c3nn(C)c4c3COc3cc(Br)ccc3-4)CC2)CC1` [Compound 92]: the IC50 in assay [1] (setting [3]) and in assay [2] (setting [4]) was 4 µM each time.
With `Cn1nc(C(=O)NCCCN2CCN(C3CCCCC3)CC2)c2c1-c1ccccc1OC2` [Compound 16], the IC50 in assay [1] (setting [3]) was 26 µM; in assay [2] (setting [4]), 46 µM.
Consider `CN1CCN(C2CN(C3CC(CNC(=O)c4nn(C)c5c4CSc4ccccc4-5)C3)C2)CC1` (stereo not drawn) [Compound 77], for which the IC50 is 21 µM in assay [1] (setting [3]) and 27 µM in assay [2] (setting [4]).
On to `Cn1nc(C(=O)NCCCN2CCC(N3CCN(Cc4ccccc4)CC3)CC2)c2c1-c1ccccc1SC2` [Compound 58], for which the IC50 in assay [1] (setting [3]) and in assay [2] (setting [4]) was 2 µM in each case.
As for `CN1CCCC12CN(CCCNC(=O)c1nn(C)c3c1CSc1ccccc1-3)C2` [Compound 100], the IC50 came to 61 µM in assay [1] (setting [3]) and 71 µM in assay [2] (setting [4]).
Regarding `CN(Cc1ccccc1)C1CCN(CCCNC(=O)c2nn(C)c3c2CSc2ccccc2-3)CC1` [Compound 65], the figures for the IC50 in assay [1] (setting [3]) and in assay [2] (setting [4]) were 8 µM and 14 µM, respectively.
`Cn1nc(C(=O)NCCCN2CCC(N3CCN(S(C)(=O)=O)CC3)CC2)c2c1-c1ccccc1SC2` [Compound 56]: the IC50 in assay [1] (setting [3]) is 50 µM; in assay [2] (setting [4]) it was 62 µM.
On to `CCN1CCN(C2CCN(C3CC(CNC(=O)c4nn(C)c5c4CSc4ccccc4-5)C3)CC2)CC1` (stereo not drawn) [Compound 61], for which the IC50 in assay [1] (setting [3]) was 0.2 µM; in assay [2] (setting [4]), 1 µM.
On to `CN1CCN(C2CN(CCCNC(=O)c3c4c(nn3C)-c3ccc(OC(F)(F)F)cc3OC4)C2)CC1` [Compound 108], for which the IC50 in assay [1] (setting [3]) was determined as 5 µM; in assay [2] (setting [4]), 8 µM.
With `Cn1nc(C(=O)NCCCN2CCC(N3CCN(CCO)CC3)CC2)c2c1-c1ccccc1SC2` [Compound 67], the values for the IC50 in assay [1] (setting [3]) and in assay [2] (setting [4]) were 20 µM and 24 µM, respectively.
In the case of `CN1CCN(C2CCN(CCCNC(=O)c3nn(C)c4c3COc3c(F)cccc3-4)CC2)CC1` [Compound 73], the IC50 came to 12 µM in assay [1] (setting [3]) and 3 µM in assay [2] (setting [4]).
On the same counts, the results for `CCN1CCN(C2CN(CCCNC(=O)c3nn(C)c4c3COc3cc(Cl)ccc3-4)C2)CC1` [Compound 87] are 6 µM and 3 µM.
On the same counts, the results for `Cn1nc(C(=O)NCCCN2CCC(N3CCN(CC4COC4)CC3)CC2)c2c1-c1ccccc1SC2` [Compound 70] are 39 µM and 9 µM.
For `Cn1nc(C(=O)NCCCN2CCN(c3ccc(C#N)cc3)CC2)c2c1-c1ccccc1SC2` [Compound 29], the values for the IC50 in assay [1] (setting [3]) and in assay [2] (setting [4]) were 41 µM and 2 µM, respectively.
As to `CN1CCN(C2CCN(CCCNC(=O)c3n[nH]c4c3COc3cc(C(F)(F)F)c(C#N)cc3-4)CC2)CC1` [Compound 130], the IC50 in assay [1] (setting [3]) was found to be 10 µM; in assay [2] (setting [4]), 4 µM.
Take `Cn1nc(C(=O)NCC(O)CN2CCN(c3ccccc3)CC2)c2c1-c1ccccc1SC2` (stereo not drawn) [Compound 18]: the IC50 came to 42 µM in assay [1] (setting [3]) and 40 µM in assay [2] (setting [4]).
On to `CN1CCN(C2CN(CCCNC(=O)c3nn(C)c4c3CSc3ccccc3-4)C2)CC1` [Compound 85], for which the IC50 was determined as 25 µM in assay [1] (setting [3]) and 19 µM in assay [2] (setting [4]).
With `CCN1CCN(C2CCN(CCCNC(=O)c3nn(C)c4c3CSc3ccccc3-4)CC2)CC1` [Compound 44], the IC50 in assay [1] (setting [3]) was found to be 2 µM; in assay [2] (setting [4]), 0.2 µM.
Regarding `CN(C)C1CCN(CCCNC(=O)c2nn(C)c3c2CSc2ccccc2-3)C1` (stereo not drawn) [Compound 52], the IC50 worked out at 59 µM in assay [1] (setting [3]) and 50 µM in assay [2] (setting [4]).
In the case of `COCCN1CCN(C2CCN(CCCNC(=O)c3nn(C)c4c3CSc3ccccc3-4)CC2)CC1` [Compound 66], the IC50 in assay [1] (setting [3]) was 19 µM; in assay [2] (setting [4]) it was 21 µM.
In the case of `CN1CCN(C2CN(CCCNC(=O)c3nn(C)c4c3COc3cc(OC(F)(F)F)ccc3-4)C2)CC1` [Compound 107], the IC50 in assay [1] (setting [3]) came out at 2 µM; in assay [2] (setting [4]), 5 µM.
Consider `CC(=O)N1CCN(C2CCN(CCCNC(=O)c3nn(C)c4c3CSc3ccccc3-4)CC2)CC1` [Compound 59], for which the IC50 in assay [1] (setting [3]) was determined as 11 µM; in assay [2] (setting [4]), 31 µM.
As to `Cn1nc(C(=O)NCCCN2CCC(NC(=O)C3CC3)CC2)c2c1-c1ccccc1SC2` [Compound 57], the IC50 amounted to 2 µM in assay [1] (setting [3]) and 21 µM in assay [2] (setting [4]).
As for `CN1CCN(C2CCN(CCCNC(=O)c3nn(C)c4c3CSc3cc(Cl)ccc3-4)CC2)CC1` [Compound 96], the figures for the IC50 in assay [1] (setting [3]) and in assay [2] (setting [4]) were 4 µM and 1 µM, respectively.
Turning to `CN1CCN(C2CN(CCCNC(=O)c3n[nH]c4c3COc3cc(C(F)(F)F)c(C#N)cc3-4)C2)CC1` [Compound 131], the IC50 in assay [1] (setting [3]) came out at 14 µM; in assay [2] (setting [4]), 9 µM.
For `Cn1nc(C(=O)NCCCN2CCC(N3CCC(F)(F)C3)CC2)c2c1-c1ccccc1SC2` [Compound 43], the IC50 in assay [1] (setting [3]) stood at 41 µM; in assay [2] (setting [4]), 43 µM.
For `CN1CCN(C2CCN(CC(F)(F)CNC(=O)c3nn(C)c4c3CSc3ccccc3-4)CC2)CC1` [Compound 33] the same measures were 19 µM and 18 µM.
On the same counts, the results for `Cn1nc(C(=O)NCCCN2CCN(c3ncccn3)CC2)c2c1-c1ccccc1SC2` [Compound 28] are 11 µM and 31 µM.
On to `CN1CCN(C2CCN(CCCNC(=O)c3nn(C)c4c3COc3cc(-c5cn[nH]c5)ccc3-4)CC2)CC1` [Compound 127], for which the IC50 in assay [1] (setting [3]) came to 8 µM; in assay [2] (setting [4]), 4 µM.
For `CN1CCN(C2CCN(CCCNC(=O)c3n[nH]c4c3CSc3ccccc3-4)CC2)CC1` [Compound 83] the same measures were 18 µM and 10 µM.
Turning to `CN1CCN(C2CCN(CCCNC(=O)c3nn(CC(C)(C)O)c4c3CSc3ccccc3-4)CC2)CC1` [Compound 90], the IC50 turned out to be 21 µM in assay [1] (setting [3]) and 34 µM in assay [2] (setting [4]).
With `Cn1nc(C(=O)NCC(F)(F)CN2CCC(N3CCCCC3)CC2)c2c1-c1ccccc1SC2` [Compound 34], the IC50 in assay [1] (setting [3]) came out at 12 µM; in assay [2] (setting [4]), 14 µM.
Regarding `CN1CCN(C2CN(CCCNC(=O)c3nn(C)c4c3COc3cc(Cl)c(C#N)cc3-4)C2)CC1` [Compound 119], the IC50 is 5 µM in assay [1] (setting [3]) and 7 µM in assay [2] (setting [4]).
`Cn1nc(C(=O)NCCCN2CCC(O)(c3ccccc3)CC2)c2c1-c1ccccc1SC2` [Compound 32]: the IC50 came out at 17 µM in assay [1] (setting [3]) and 16 µM in assay [2] (setting [4]).
In the case of `Cn1nc(C(=O)NCCCN2CCN(C3CCCCC3)CC2)c2c1-c1ccccc1S(=O)(=O)C2` [Compound 7], the results for the IC50 in assay [1] (setting [3]) and in assay [2] (setting [4]) were 85 µM and 88 µM, respectively.
Turning to `Cn1nc(C(=O)NCCCN2CCN(C3CCCCC3)CC2)c2c1-c1ccccc1CC2` [Compound 17], the IC50 in assay [1] (setting [3]) came to 21 µM; in assay [2] (setting [4]), 57 µM.
Regarding `Cn1nc(C(=O)NCCCN2CCN(C3CCOCC3)CC2)c2c1-c1ccccc1SC2` [Compound 2], the IC50 in assay [1] (PLC-PRF-5, 72 h) was 84 µM; in assay [2] (read-out: IC50 value of cell viability, MHCC97H KSR2 OE (97H cells overexpressing KSR2)), over 100 µM.
`Cc1ccc2c(c1)OCc1c(C(=O)NCCCN3CCC(N4CCN(C)CC4)CC3)nn(C)c1-2` [Compound 120]: the IC50 in assay [1] (setting [3]) came out at 8 µM; in assay [2] (setting [4]), 10 µM.
With `CN1CCN(C2CN(C3CC(CNC(=O)c4nn(C)c5c4CSc4cc(Cl)ccc4-5)C3)C2)CC1` (stereo not drawn) [Compound 110], the values for the IC50 in assay [1] (setting [3]) and in assay [2] (setting [4]) were 4 µM and 9 µM, respectively.
Consider `CCN1CCN(C2CCN(CCCNC(=O)c3nn(C)c4c3COc3cc(-c5cnn(C)c5)ccc3-4)CC2)CC1` [Compound 133], for which the results for the IC50 in assay [1] (setting [3]) and in assay [2] (setting [4]) were 2 µM and 1 µM, respectively.
On to `Cn1nc(C(=O)NCCCN2CCC(N3CCN(CCC#N)CC3)CC2)c2c1-c1ccccc1SC2` [Compound 79], for which the IC50 was 57 µM in assay [1] (setting [3]) and 40 µM in assay [2] (setting [4]).
As to `CN1CCN(C2CCN(CCCNC(=O)c3n[nH]c4c3COc3cc(Cl)c(C#N)cc3-4)CC2)CC1` [Compound 128], the results for the IC50 in assay [1] (setting [3]) and in assay [2] (setting [4]) were 4 µM and 6 µM, respectively.
On the same counts, the results for `CN1CCN(C2CCN(CCCNC(=O)c3nn(C)c4c3COc3ccc(C#N)cc3-4)CC2)CC1` [Compound 82] are 8 µM and 8 µM.
On the same counts, the results for `CC(CNC(=O)c1nn(C)c2c1CSc1ccccc1-2)CN1CCN(c2ccccc2)CC1` (stereo not drawn) [Compound 40] are 21 µM and over 100 µM.
On the same counts, the results for `CN(C)C1CCN(CCCNC(=O)c2nn(C)c3c2CSc2ccccc2-3)CC1` [Compound 45] are 5 µM and 6 µM.
As for `CC(C)N1CCN(C2CCN(CCCNC(=O)c3nn(C)c4c3CSc3ccccc3-4)CC2)CC1` [Compound 60], the values for the IC50 in assay [1] (setting [3]) and in assay [2] (setting [4]) were 2 µM and 4 µM, respectively.
For the compound `CN1CCN(C2CCN(CCCNC(=O)c3c4c(nn3C)-c3cc(C#N)c(Cl)cc3OC4)CC2)CC1` [Compound 122], the values for the IC50 in assay [1] (setting [3]) and in assay [2] (setting [4]) were 4 µM and 5 µM, respectively.
